# Reference: paper PMC7587962, “Evaluation of Cytotoxicity and α-Glucosidase Inhibitory Activity of Amide and Polyamino-Derivatives of Lupane Triterpenoids” (Molecules, 2020)
# Columns and labels:
# BT-549 = experiment: NCI-60 SRB screen: breast cancer BT-549; type: cell-based, human; conditions: BT-549
# HCT-15 = experiment: NCI-60 SRB screen: colon cancer HCT-15; type: cell-based, human; conditions: HCT-15
# K-562 = experiment: NCI-60 SRB screen: leukemia K-562; type: cell-based, human; conditions: K-562
# Prostate cancer subpanel = experiment: NCI-60 screen, subpanel Prostate cancer
# NCI-H226 = experiment: NCI-60 SRB screen: non-small cell lung cancer NCI-H226; type: cell-based, human; conditions: NCI-H226
# MOLT-4 = experiment: NCI-60 SRB screen: leukemia MOLT-4; type: cell-based; conditions: Homo sapiens, 48 h, MOLT-4
# MALME-3M = experiment: NCI-60 SRB screen: melanoma MALME-3M; type: cell-based, human; conditions: MALME-3M
# MCF7 = experiment: NCI-60 SRB screen: breast cancer MCF7; type: cell-based; conditions: Homo sapiens, 48 h, MCF7
# M14 = experiment: NCI-60 SRB screen: melanoma M14; type: cell-based, human; conditions: M14
# OVCAR-8 = experiment: NCI-60 SRB screen: ovarian cancer OVCAR-8; type: cell-based, human; conditions: OVCAR-8
# CAKI-1 = experiment: NCI-60 SRB screen: renal cancer CAKI-1; type: cell-based, human; conditions: CAKI-1
# SF-295 = experiment: NCI-60 SRB screen: CNS cancer SF-295; type: cell-based, human; conditions: SF-295
# HCT-116 = experiment: NCI-60 SRB screen: colon cancer HCT-116; type: cell-based; conditions: Homo sapiens, 48 h, HCT-116
# Leukemia subpanel = experiment: NCI-60 screen, subpanel Leukemia
# SNB-19 = experiment: NCI-60 SRB screen: CNS cancer SNB-19; type: cell-based, human; conditions: SNB-19
# MDA-MB-231/ATCC = experiment: NCI-60 SRB screen: breast cancer MDA-MB-231/ATCC; type: cell-based; conditions: Homo sapiens, 48 h
# SK-MEL-5 = experiment: NCI-60 SRB screen: melanoma SK-MEL-5; type: cell-based, human; conditions: SK-MEL-5
# UACC-257 = experiment: NCI-60 SRB screen: melanoma UACC-257; type: cell-based, human; conditions: UACC-257
# NCI/ADR-RES = experiment: NCI-60 SRB screen: ovarian cancer NCI/ADR-RES; type: cell-based, human
# HT29 = experiment: NCI-60 SRB screen: colon cancer HT29; type: cell-based; conditions: Homo sapiens, HT29
# CCRF-CEM = experiment: NCI-60 SRB screen: leukemia CCRF-CEM; type: cell-based; conditions: Homo sapiens, 48 h
# HS 578T = experiment: NCI-60 SRB screen: breast cancer HS 578T; type: cell-based, human; conditions: HS 578T
# A549/ATCC = experiment: NCI-60 SRB screen: non-small cell lung cancer A549/ATCC; type: cell-based, human; conditions: A549/ATCC
# NCI-H23 = experiment: NCI-60 SRB screen: non-small cell lung cancer NCI-H23; type: cell-based, human; conditions: NCI-H23
# OVCAR-3 = experiment: NCI-60 SRB screen: ovarian cancer OVCAR-3; type: cell-based, human; conditions: OVCAR-3
# ACHN = experiment: NCI-60 SRB screen: renal cancer ACHN; type: cell-based, human
# LOX IMVI = experiment: NCI-60 SRB screen: melanoma LOX IMVI; type: cell-based, human
# SN12C = experiment: NCI-60 SRB screen: renal cancer SN12C; type: cell-based, human
# U251 = experiment: NCI-60 SRB screen: CNS cancer U251; type: cell-based; conditions: Homo sapiens, U251
# Renal Cancer subpanel = experiment: NCI-60 screen, subpanel Renal Cancer
# SW-620 = experiment: NCI-60 SRB screen: colon cancer SW-620; type: cell-based; conditions: Homo sapiens, 48 h, SW-620
# 786-0 = experiment: NCI-60 SRB screen: renal cancer 786-0; type: cell-based, human; conditions: 786-0
# EKVX = experiment: NCI-60 SRB screen: non-small cell lung cancer EKVX; type: cell-based, human
# UACC-62 = experiment: NCI-60 SRB screen: melanoma UACC-62; type: cell-based, human; conditions: UACC-62
# KM12 = experiment: NCI-60 SRB screen: colon cancer KM12; type: cell-based, human; conditions: KM12
# MDA-MB-435 = experiment: NCI-60 SRB screen: melanoma MDA-MB-435; type: cell-based, human; conditions: MDA-MB-435
# DU-145 = experiment: NCI-60 SRB screen: prostate cancer DU-145; type: cell-based, human; conditions: DU-145
# [1] = Homo sapiens, five concentrations, 48 h, SRB, read-out: GI50
# [2] = single dose 10 µM, read-out: Percentage Cell Growth
# [3] = five concentrations, SRB, read-out: GI50
compound,measurement,setting,value
C=C(C)[C@@H]1CC[C@]2(C(=O)NCCNCCNCCN)CC[C@]3(C)[C@H](CC[C@@H]4[C@@]5(C)CC[C@H](O)C(C)(C)[C@@H]5CC[C@]43C)[C@@H]12 [Compound 6],Percentage Cell Growth,BT-549; single dose 10 µM,−51.94%
same,GI50,BT-549; [1],15 µM
same,Percentage Cell Growth,HCT-15; single dose 10 µM,−24.81%
same,GI50,HCT-15; [1],11.5 µM
same,GI50,"K-562; Homo sapiens, K562, five concentrations, 48 h, SRB, read-out: GI50",6.9 µM
same,Percentage Cell Growth,K-562; single dose 10 µM,−15.78%
same,"MID b, average sensitivity of all cell line of particular subpanel",Prostate cancer subpanel,8.53 µM
same,"Selectivity, ratio MID a: MID b",Prostate cancer subpanel,1.42
same,GI50,NCI-H226; [1],15.5 µM
same,Percentage Cell Growth,NCI-H226; single dose 10 µM,−23.56%
same,activity at 10 µM,MOLT-4; [2],1.18%
same,GI50,MOLT-4; [3],11.5 µM
same,GI50,MALME-3M; [1],14.6 µM
same,Percentage Cell Growth,MALME-3M; single dose 10 µM,−100.00%
same,activity at 10 µM,MCF7; [2],-60.5%
same,GI50,MCF7; [3],13.2 µM
same,GI50,M14; [1],11 µM
same,Percentage Cell Growth,M14; single dose 10 µM,−30.98%
same,GI50,OVCAR-8; [1],18.8 µM
same,Percentage Cell Growth,OVCAR-8; single dose 10 µM,−12.90%
same,Percentage Cell Growth,CAKI-1; single dose 10 µM,−93.59%
same,GI50,CAKI-1; [1],5.92 µM
same,GI50,SF-295; [1],13.8 µM
same,Percentage Cell Growth,SF-295; single dose 10 µM,−84.72%
same,activity at 10 µM,HCT-116; [2],-26.5%
same,GI50,HCT-116; [3],4.4 µM
same,"MID b, average sensitivity of all cell line of particular subpanel",Leukemia subpanel,6.64 µM
same,"Selectivity, ratio MID a: MID b",Leukemia subpanel,1.83
same,GI50,SNB-19; [1],12.9 µM
same,Percentage Cell Growth,SNB-19; single dose 10 µM,−74.52%
same,activity at 10 µM,"MDA-MB-231/ATCC; MDA-MB-231/ATCC, single dose 10 µM, read-out: Percentage Cell Growth",-56.9%
same,GI50,"MDA-MB-231/ATCC; MDA-MB-231, MDA-MB-31/ATCC, five concentrations, SRB, read-out: GI50",15.1 µM
same,GI50,SK-MEL-5; [1],11.1 µM
same,Percentage Cell Growth,SK-MEL-5; single dose 10 µM,−90.10%
same,GI50,UACC-257; [1],15.1 µM
same,Percentage Cell Growth,UACC-257; single dose 10 µM,−39.58%
same,GI50,NCI/ADR-RES; [1],18.9 µM
same,Percentage Cell Growth,NCI/ADR-RES; single dose 10 µM,−13.05%
same,activity at 10 µM,"HT29; HT-29, 48 h, single dose 10 µM, read-out: Percentage Cell Growth",-39.6%
same,GI50,"HT29; HT-29, five concentrations, 48 h, SRB, read-out: GI50",14.6 µM
same,activity at 10 µM,CCRF-CEM; [2],5.18%
same,GI50,CCRF-CEM; [3],4.55 µM
same,Percentage Cell Growth,HS 578T; single dose 10 µM,−23.26%
same,GI50,HS 578T; [1],20.1 µM
same,Percentage Cell Growth,A549/ATCC; single dose 10 µM,−64.63%
same,GI50,A549/ATCC; [1],4.97 µM
same,GI50,NCI-H23; [1],14.7 µM
same,Percentage Cell Growth,NCI-H23; single dose 10 µM,−51.70%
same,GI50,OVCAR-3; [1],12.2 µM
same,Percentage Cell Growth,OVCAR-3; single dose 10 µM,−66.02%
same,GI50,ACHN; [1],12 µM
same,Percentage Cell Growth,ACHN; single dose 10 µM,−100.00%
same,GI50,LOX IMVI; [1],14.9 µM
same,Percentage Cell Growth,LOX IMVI; single dose 10 µM,−41.03%
same,GI50,SN12C; [1],13.5 µM
same,Percentage Cell Growth,SN12C; single dose 10 µM,−53.68%
same,activity at 10 µM,"U251; U-251, 48 h, single dose 10 µM, read-out: Percentage Cell Growth",-71.7%
same,GI50,"U251; U-251, five concentrations, 48 h, SRB, read-out: GI50",12.7 µM
same,"MID b, average sensitivity of all cell line of particular subpanel",Renal Cancer subpanel,13.02 µM
same,"Selectivity, ratio MID a: MID b",Renal Cancer subpanel,0.93
same,activity at 10 µM,SW-620; [2],-86.7%
same,GI50,SW-620; [3],14.7 µM
same,Percentage Cell Growth,786-0; single dose 10 µM,−83.51%
same,GI50,786-0; [1],12.4 µM
same,GI50,EKVX; [1],10.5 µM
same,Percentage Cell Growth,EKVX; single dose 10 µM,−11.36%
same,GI50,UACC-62; [1],9.29 µM
same,Percentage Cell Growth,UACC-62; single dose 10 µM,−100.00%
same,GI50,KM12; [1],6.81 µM
same,Percentage Cell Growth,KM12; single dose 10 µM,−52.23%
same,GI50,MDA-MB-435; [1],13.4 µM
same,Percentage Cell Growth,MDA-MB-435; single dose 10 µM,−89.21%
same,Percentage Cell Growth,DU-145; single dose 10 µM,−8.34%
same,GI50,DU-145; [1],14.1 µM
